These are literature values, as cited in patent publication US20150290251A1, “USE OF EGGSHELL MEMBRANE FORMULATIONS TO ALLEVIATE JOINT PAIN” (U.S. NUTRACEUTICALS, LLC d/b/a Valensa International, priority 2009, published 2015).

One series concerns C-Reactive Protein (CRP). As to conditions: human subjects with high risk levels of CRP; three months of treatment.
Series [1] relates to cellular membrane lipid peroxidation.
In the next series the test system is NO, PGE-2 and TNF-Alpha. As to conditions: induced uveitis; suppression of NO, PGE-2 and TNF-Alpha by directly blocking NO synthase activity.
A further series concerns lens epithelial cells. Conditions: in vitro lens epithelial cells; umol/L concentrations.
The conditions of series [2]: compared with alpha-tocopherol.
The conditions of series [3]: human trials; 4 mgs/day; compared to untreated subjects.

In the case of `CC1=C(/C=C/C(C)=C/C=C/C(C)=C/C=C/C=C(C)/C=C/C=C(C)/C=C/C2=C(C)C(=O)C(O)CC2(C)C)C(C)(C)CC(O)C1=O` (stereo not drawn) [Astaxanthin, 3,3′-dihydroxy-β, β-carotene-4, 4′dione], the “patients whose serum CRP levels dropped below the risk level” value in the series on C-Reactive Protein (CRP) is 43 % of patients. In addition, in series [1], the “effect on pro-oxidant activity of Vioxx” value is “completely negates”. Further, the ocular anti-inflammatory activity entry in the series with NO, PGE-2 and TNF-Alpha is “dose dependent ocular anti-inflammatory activity”. Besides, the “suppression of UVB induced lipid peroxidative mediated cell damage” value in the series on lens epithelial cells is reported as “dramatically suppresses”. In series [2], the “ability to quench singlet oxygen relative to alpha-tocopherol” value is reported as “over five hundred times”. The “prevention of joint pain following strenuous knee exercise” value in series [3] is “completely prevented”.
